Measurements taken from ChEMBL document CHEMBL1201862, “PubChem BioAssay data set” (2004).
Activity calls are given as the source filed them.

Legend:
[1] = target: T1, Kappa-type opioid receptor (Homo sapiens, UniProt P41145); test: SAR analysis of small molecule antagonists of the kappa opioid receptor via a luminescent beta-arrestin assay - Set 3. [Related pubchem assays (depositor defined):AID1777, AID1778, AID1785, AID1786, AID1966, AID2133, AID2136, AID2285, AID2495]; assay type: functional
Mu-type opioid receptor = Mu-type opioid receptor (Homo sapiens, UniProt P35372); test: SAR Analysis of Antagonists of the MOR Receptor using an Image-Based Assay - Set 3. [Related pubchem assays (depositor defined):AID1777, AID1785, AID1786, AID1966, AID2133, AID2136, AID2284, AID2285, AID2420]; assay type: functional
[2] = target: T1, Kappa-type opioid receptor; test: SAR analysis of Antagonists of the Kappa Opioid Receptor (KOR) using an Image-Based Assay - Set 3. [Related pubchem assays (depositor defined):AID1777, AID1785]; assay type: functional
[3] = target: Delta-type opioid receptor (Homo sapiens, UniProt P41143); test: SAR Analysis of Antagonists of the DOR Receptor using an Image-Based Assay - Set 3. [Related pubchem assays (depositor defined):AID1777, AID1785]; assay type: functional;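 further: U2OS cells expressing DOR1 and beta-arrestin GFP stimulated with 100 nM SNC80; imaging of GFP-tagged beta-arrestin moving into spots after receptor activation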
[4] = target: T1, Kappa-type opioid receptor; test: SAR analysis of small molecule antagonists of the kappa opioid receptor via a luminescent beta-arrestin assay - Set 6. [Related pubchem assays (depositor defined):AID1777, AID1778, AID1785, AID1786, AID1966, AID2133, AID2136, AID2285]; assay type: functional
[5] = target: T1, Kappa-type opioid receptor; test: SAR analysis of Antagonists of the Kappa Opioid Receptor (KOR) using an Image-Based Assay - Set 4. [Related pubchem assays (depositor defined):AID1777, AID1785]; assay type: functional
Hexokinase = Hexokinase (Trypanosoma brucei, UniProt Q38C41); test: Confirmation assay for inhibitors of Trypanosoma brucei hexokinase 1-Analogue-first series. [Related pubchem assays (depositor defined):AID1430, AID1632, AID2516, AID2560, AID2579, AID2600, AID449725, AID492951]; assay type: functional
[6] = Luminescence Cell-Based Dose Confirmation HTS to Identify Activators of 5'UTR Stem-Loop Driven Alpha-Synuclein mRNA Translation in H4 Neuroglioblastoma Cells. [Related pubchem assays: 1829 (Project Summary), 1814 (Primary HTS)]; assay type: functional
[7] = Luminescence Cell-Based Dose Response HTS to Identify Activators of Luciferase Translation or Activity in H4 […] Cells. [Related pubchem assays: 1829 (Project Summary), 1814 (Primary HTS)]; assay type: functional
[8] = target: E3 ubiquitin-protein ligase Mdm2/Protein Mdm4 (Homo sapiens, UniProt O15151+Q00987); test: disruption of Mdm2/MdmX protein binding – luminescence detection, dose response (AID 504593); assay type: functional
H4 = test: Luminescence Cell-Based Dose Response HTS to Identify Activators of 5'UTR Stem-Loop Driven Prion Protein mRNA Translation in H4 Neuroglioblastoma Cells. [Related pubchem assays: 1829 (Project Summary), 1814 (Primary HTS)]; assay type: functional; conditions: Homo sapiens
Phospholipase A2 = Phospholipase A2 (Homo sapiens, UniProt P04054); assay type: functional;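 further: confirmatory dose-response counterscreen on phospholipase A2, testing hits that came from an ultra-high-throughput screen for ATG4B inhibitors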
[9] = target: T2, DNA repair protein RAD52 homolog (Homo sapiens, UniProt P43351); assay type: functional, biochemical
T2 sequence (P43351 whole entry): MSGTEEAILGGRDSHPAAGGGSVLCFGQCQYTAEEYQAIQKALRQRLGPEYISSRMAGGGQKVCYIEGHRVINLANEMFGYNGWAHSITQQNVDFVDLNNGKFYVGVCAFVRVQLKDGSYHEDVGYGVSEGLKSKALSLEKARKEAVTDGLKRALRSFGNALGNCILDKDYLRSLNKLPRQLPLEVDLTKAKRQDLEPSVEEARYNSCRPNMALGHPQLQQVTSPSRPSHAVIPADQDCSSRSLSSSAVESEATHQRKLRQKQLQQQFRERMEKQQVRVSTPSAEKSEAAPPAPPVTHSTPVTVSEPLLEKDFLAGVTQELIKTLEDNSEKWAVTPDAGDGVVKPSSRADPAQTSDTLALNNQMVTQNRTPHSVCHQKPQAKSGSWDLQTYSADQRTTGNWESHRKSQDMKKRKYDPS

[10] = viability loss in THP-1 monocytes – THP-1 cells, cytotoxicity control for Vif-APOBEC3G degradation inhibitor project, dose response (AID 1117359); assay type: functional; conditions: THP-1
[11] = viability loss in HeLa cells – cytotoxicity control for MgcRacGAP inhibitor project, dose response (AID 624300); assay type: functional
[12] = target: Dual specificity tyrosine-phosphorylation-regulated kinase 1A (Rattus norvegicus, UniProt Q63470); assay type: biochemical, Homo sapiens
Troponin, cardiac muscle = Troponin, cardiac muscle (Homo sapiens, UniProt P19429+P45379+P63316); test: compounds desensitizing RTF to calcium – biochemical, fluorescence, cardiac regulated thin filaments, triplicate IC50, dose response (AID 504742); assay type: protein-complex assay
[13] = target: Glutathione-S-transferase (Schistosoma japonicum, UniProt Q26513); test: GST-antibody interaction or FRET quenching – biochemical, TR-FRET, artefact control for Vif-APOBEC3G degradation inhibitor project, dose response (AID 1117362); assay type: functional
Cysteine protease ATG4B = target: T3, Cysteine protease ATG4B (Homo sapiens, UniProt Q9Y4P1); assay type: functional;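 further: Fluorescence-based dose-response confirmation assay measuring inhibition of ATG4B activity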
T3 sequence (Q9Y4P1 whole entry): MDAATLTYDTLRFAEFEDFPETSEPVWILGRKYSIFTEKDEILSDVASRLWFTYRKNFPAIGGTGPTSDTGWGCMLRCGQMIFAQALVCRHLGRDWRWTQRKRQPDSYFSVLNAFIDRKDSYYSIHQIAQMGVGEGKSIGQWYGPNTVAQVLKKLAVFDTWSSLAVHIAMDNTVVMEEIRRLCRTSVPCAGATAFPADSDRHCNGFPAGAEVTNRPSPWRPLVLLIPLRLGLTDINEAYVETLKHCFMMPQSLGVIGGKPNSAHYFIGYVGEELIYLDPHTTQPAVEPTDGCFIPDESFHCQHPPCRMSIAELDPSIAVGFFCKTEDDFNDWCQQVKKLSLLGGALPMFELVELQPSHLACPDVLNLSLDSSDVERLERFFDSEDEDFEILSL

[14] = target: T4, Rac GTPase-activating protein 1 (Homo sapiens, UniProt Q9H0H5); test: blockers of MgcRacGAP-driven Rac1 GTP hydrolysis – biochemical, ADP Hunter fluorescence, primary and confirmatory, confirmation (AID 624330); assay type: functional
T4 sequence (Q9H0H5 whole entry): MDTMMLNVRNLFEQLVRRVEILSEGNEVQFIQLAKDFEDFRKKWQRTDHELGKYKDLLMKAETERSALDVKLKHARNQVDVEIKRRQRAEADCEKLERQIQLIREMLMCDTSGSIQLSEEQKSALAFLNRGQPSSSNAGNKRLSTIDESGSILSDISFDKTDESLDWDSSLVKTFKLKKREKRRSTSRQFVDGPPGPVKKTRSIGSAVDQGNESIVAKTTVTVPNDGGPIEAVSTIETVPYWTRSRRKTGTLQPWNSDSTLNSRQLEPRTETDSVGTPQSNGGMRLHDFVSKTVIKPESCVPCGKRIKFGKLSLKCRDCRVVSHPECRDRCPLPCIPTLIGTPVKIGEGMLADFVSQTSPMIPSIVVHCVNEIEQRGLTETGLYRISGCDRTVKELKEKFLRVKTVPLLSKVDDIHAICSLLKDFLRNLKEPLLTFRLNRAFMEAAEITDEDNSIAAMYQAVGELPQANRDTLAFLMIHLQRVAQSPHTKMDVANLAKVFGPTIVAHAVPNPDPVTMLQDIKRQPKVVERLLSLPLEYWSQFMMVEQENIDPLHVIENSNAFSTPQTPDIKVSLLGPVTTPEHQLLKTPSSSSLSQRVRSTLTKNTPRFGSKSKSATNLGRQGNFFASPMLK

Nonstructural protein 1 = Nonstructural protein 1 (Influenza A virus, UniProt Q194T2); assay type: functional, Influenza A virus (A/California/07/2009(H1N1))
[15] = target: Glyceraldehyde-3-phosphate dehydrogenase (Homo sapiens, UniProt P04406)
[16] = target: T5, Alkaline phosphatase, tissue-nonspecific isozyme (Homo sapiens, UniProt P05186); test: potency against alkaline phosphatase TNAP – biochemical, luminescent, dose response, SAR follow-up (AID 1056)
T5 sequence (P05186 whole entry): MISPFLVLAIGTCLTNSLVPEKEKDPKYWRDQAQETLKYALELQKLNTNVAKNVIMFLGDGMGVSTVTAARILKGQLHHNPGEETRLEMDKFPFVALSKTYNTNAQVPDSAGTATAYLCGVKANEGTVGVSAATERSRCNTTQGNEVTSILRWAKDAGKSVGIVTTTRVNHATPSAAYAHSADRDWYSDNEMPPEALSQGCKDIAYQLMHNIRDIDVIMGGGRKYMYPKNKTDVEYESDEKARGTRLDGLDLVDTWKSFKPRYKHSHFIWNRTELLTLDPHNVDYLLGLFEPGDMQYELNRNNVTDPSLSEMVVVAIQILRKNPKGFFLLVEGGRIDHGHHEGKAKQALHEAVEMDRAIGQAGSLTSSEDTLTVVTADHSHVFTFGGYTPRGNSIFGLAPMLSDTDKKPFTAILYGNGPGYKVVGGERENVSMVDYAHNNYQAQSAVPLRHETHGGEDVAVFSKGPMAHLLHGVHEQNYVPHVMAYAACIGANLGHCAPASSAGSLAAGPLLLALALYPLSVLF

[17] = target: Alkaline phosphatase, placental type (Homo sapiens, UniProt P05187); test: human placental alkaline phosphatase inhibition – biochemical, luminescence, confirmation (AID 1512); assay type: functional
[18] = target: T6, Short transient receptor potential channel 4 (Mus musculus, UniProt Q9QUQ5); test: potentiation of DAMGO-evoked TRPC4 calcium signal – cell-based, HEK293 TRPC4/mu-opioid, Fluo-4 calcium, EC20 DAMGO, dose response (AID 434941); assay type: functional
T6 sequence (Q9QUQ5 whole entry): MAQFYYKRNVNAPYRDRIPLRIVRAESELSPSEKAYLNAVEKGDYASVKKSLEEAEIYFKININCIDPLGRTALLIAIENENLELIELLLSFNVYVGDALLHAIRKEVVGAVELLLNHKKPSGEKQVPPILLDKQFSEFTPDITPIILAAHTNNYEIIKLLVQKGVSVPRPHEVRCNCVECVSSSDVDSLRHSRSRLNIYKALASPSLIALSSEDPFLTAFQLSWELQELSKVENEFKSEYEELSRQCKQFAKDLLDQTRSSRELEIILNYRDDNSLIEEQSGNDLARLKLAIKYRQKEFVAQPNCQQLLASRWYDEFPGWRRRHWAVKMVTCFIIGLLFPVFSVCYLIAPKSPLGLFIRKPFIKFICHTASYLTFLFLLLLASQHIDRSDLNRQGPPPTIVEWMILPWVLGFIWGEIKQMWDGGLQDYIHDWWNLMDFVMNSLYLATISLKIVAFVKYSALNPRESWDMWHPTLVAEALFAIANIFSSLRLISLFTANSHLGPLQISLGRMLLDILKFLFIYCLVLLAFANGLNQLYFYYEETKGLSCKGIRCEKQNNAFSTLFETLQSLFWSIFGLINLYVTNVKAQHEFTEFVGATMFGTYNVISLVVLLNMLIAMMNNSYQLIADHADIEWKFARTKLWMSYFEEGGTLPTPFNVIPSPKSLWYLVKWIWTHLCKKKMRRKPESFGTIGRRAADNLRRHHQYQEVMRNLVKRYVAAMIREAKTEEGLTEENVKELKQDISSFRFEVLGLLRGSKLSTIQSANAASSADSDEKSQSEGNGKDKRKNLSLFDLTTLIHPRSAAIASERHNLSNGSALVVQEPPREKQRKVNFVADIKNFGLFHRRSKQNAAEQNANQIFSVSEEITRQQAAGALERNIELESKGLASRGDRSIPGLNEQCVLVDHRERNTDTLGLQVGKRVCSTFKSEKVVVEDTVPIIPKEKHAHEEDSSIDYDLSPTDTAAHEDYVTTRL

Integrin alpha-4 = Integrin alpha-4 (Homo sapiens, UniProt P13612); test: allosteric modulators of alpha4 integrin VLA-4 – cell-based, LIBS antibody binding, flow cytometry, SAR follow-up (AID 488791); assay type: functional
Chain of Integrin alpha-4 (P13612 whole entry): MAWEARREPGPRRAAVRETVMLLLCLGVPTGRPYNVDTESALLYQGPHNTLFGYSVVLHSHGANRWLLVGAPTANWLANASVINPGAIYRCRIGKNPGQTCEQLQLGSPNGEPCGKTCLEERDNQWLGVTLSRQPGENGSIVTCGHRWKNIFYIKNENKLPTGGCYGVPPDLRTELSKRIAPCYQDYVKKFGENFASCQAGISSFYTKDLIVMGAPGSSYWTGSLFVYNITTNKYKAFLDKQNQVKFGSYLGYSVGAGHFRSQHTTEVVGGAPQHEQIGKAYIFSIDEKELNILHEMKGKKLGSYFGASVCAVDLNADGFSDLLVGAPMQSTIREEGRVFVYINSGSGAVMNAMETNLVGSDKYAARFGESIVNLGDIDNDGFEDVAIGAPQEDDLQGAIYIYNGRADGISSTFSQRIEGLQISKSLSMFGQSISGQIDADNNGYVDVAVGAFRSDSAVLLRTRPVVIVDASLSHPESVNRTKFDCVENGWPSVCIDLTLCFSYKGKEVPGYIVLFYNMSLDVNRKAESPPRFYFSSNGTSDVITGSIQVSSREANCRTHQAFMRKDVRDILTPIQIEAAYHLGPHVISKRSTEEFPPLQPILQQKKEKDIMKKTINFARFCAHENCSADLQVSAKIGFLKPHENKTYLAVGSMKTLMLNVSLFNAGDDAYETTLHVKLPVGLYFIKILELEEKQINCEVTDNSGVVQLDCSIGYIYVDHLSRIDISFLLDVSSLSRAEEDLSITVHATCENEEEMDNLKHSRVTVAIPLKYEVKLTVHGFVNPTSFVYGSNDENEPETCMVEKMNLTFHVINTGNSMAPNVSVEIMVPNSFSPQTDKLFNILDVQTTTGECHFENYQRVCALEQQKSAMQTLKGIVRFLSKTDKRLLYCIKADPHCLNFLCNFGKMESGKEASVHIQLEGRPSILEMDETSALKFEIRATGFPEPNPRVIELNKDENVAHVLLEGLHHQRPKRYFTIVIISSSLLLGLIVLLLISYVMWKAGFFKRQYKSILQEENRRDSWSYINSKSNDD

T1 sequence (P41145 whole entry): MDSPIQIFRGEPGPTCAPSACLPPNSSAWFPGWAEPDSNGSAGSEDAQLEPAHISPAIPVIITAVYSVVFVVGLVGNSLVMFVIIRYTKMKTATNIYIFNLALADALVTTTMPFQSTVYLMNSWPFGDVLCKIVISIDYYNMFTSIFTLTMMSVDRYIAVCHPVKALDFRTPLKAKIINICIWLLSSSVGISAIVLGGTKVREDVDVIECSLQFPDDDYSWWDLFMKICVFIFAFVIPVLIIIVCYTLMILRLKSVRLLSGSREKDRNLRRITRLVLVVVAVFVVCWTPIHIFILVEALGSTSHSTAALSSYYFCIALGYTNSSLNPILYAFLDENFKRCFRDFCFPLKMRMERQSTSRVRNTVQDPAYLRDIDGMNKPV
Chain of Glutathione-S-transferase (Q26513 whole entry): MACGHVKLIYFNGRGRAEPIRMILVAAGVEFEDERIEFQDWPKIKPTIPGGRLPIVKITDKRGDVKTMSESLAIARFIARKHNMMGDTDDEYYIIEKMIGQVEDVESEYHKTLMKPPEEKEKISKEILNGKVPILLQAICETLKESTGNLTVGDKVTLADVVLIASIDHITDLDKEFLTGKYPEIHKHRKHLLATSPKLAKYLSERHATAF
Chain of Delta-type opioid receptor (P41143 whole entry): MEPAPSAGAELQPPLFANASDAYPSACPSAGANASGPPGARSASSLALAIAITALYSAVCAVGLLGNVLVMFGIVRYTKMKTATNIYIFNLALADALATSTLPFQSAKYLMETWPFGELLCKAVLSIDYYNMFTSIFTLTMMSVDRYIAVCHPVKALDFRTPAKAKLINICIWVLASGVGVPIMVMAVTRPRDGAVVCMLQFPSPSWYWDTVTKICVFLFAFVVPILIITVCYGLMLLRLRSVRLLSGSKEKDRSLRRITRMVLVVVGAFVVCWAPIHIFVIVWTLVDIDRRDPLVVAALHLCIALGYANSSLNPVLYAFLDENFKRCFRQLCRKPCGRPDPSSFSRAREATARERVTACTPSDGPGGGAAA
Chain of Mu-type opioid receptor (P35372 whole entry): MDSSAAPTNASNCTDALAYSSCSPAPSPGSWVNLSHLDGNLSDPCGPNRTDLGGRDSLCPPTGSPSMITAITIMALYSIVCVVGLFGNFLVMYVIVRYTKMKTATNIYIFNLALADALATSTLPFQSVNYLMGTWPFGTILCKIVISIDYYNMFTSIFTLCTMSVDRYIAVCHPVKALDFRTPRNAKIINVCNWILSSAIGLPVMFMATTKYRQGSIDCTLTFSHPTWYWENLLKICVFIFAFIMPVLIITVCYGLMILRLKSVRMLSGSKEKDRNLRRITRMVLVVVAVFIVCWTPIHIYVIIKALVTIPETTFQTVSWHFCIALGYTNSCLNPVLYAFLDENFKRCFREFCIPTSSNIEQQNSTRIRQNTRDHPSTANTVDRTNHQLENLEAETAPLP
Chain of Nonstructural protein 1 (Q194T2 whole entry): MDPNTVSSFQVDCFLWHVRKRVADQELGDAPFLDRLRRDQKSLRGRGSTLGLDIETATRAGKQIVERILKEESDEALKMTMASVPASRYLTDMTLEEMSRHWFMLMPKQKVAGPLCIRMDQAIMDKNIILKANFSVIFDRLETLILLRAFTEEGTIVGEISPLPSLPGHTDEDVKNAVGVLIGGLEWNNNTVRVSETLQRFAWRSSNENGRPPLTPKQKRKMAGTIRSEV
Chain of Alkaline phosphatase, placental type (P05187 whole entry): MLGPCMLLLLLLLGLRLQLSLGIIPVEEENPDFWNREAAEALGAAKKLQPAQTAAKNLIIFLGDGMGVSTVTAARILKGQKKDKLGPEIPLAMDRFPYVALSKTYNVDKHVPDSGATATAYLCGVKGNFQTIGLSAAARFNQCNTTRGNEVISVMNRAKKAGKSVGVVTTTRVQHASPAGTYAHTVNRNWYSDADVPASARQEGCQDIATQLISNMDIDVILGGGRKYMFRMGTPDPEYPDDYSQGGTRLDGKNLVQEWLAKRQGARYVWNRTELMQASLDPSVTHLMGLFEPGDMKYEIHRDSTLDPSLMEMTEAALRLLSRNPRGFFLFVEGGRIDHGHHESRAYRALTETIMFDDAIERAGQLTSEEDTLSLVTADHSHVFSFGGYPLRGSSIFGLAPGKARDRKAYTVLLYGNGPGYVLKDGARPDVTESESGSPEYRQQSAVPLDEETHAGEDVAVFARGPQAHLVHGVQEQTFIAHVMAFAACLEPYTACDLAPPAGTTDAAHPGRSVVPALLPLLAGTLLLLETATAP
Chain of Phospholipase A2 (P04054 whole entry): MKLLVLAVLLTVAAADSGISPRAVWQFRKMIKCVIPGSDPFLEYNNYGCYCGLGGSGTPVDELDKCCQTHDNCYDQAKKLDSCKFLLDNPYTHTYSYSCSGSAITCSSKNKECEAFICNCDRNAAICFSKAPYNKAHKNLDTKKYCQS
Chain of Hexokinase (Q38C41 whole entry): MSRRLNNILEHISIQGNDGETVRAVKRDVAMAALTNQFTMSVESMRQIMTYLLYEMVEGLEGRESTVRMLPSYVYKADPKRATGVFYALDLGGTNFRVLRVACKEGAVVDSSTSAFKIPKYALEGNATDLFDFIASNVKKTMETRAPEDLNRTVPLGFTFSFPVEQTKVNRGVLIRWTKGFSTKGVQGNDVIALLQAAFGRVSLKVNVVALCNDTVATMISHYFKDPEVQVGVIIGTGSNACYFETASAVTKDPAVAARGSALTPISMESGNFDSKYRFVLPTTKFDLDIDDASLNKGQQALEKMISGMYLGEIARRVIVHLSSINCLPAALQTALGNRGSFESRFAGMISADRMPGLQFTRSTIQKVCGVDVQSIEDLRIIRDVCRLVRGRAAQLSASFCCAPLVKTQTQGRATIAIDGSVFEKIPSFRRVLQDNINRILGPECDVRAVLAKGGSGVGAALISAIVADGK
Chain of Glyceraldehyde-3-phosphate dehydrogenase (P04406 whole entry): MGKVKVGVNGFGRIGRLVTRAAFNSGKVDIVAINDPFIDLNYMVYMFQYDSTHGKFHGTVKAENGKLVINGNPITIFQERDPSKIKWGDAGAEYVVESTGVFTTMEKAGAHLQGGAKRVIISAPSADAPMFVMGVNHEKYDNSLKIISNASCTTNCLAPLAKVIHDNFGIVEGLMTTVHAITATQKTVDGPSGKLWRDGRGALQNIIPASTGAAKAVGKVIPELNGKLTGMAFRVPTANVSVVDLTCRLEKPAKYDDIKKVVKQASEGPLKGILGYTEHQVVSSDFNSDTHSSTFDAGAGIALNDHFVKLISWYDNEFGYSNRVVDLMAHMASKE

Question: Which results are given for `O=C(Cn1c(=O)c2cccn2c2cccnc21)NCCCN1CCN(c2ccccc2)CC1`?
Answer: IC50 [1]: 1.17 µM (active); IC50 (Mu-type opioid receptor): > 32 µM (inactive); IC50 [2]: 12.7 µM (inactive); IC50 [3]: > 32 µM (inactive); IC50 [4]: > 20 µM (inactive); IC50 [5]: > 32 µM (inactive)

Question: For `CCCCCC(=O)Nc1cc(Cl)ccc1C(=O)O`, which IC50 (Hexokinase) is on record?
Answer: > 25 µM (inactive)

Question: Which results are given for `CC1(C)C(=O)Nc2ccccc2N1C(=O)Cn1ncc(Cl)c(Cl)c1=O`?
Answer: EC50 [6]: > 60 µM (not active); EC50 [7]: > 120 µM (not active); IC50 [8]: 5.11 µM (active); EC50 (H4): > 120 µM (not active)

Question: With `N=C(N)c1ccc(/N=N/c2c(O)ccc3c2[nH]c2ccccc23)cc1` as the molecule, how does the IC50 (Phospholipase A2) read?
Answer: 9.6 µM (active)

Question: What about the AC50 [9] of the same molecule?
Answer: 2.15 µM (active)

Question: What about the CC50 [10] of the same molecule?
Answer: 12.5 µM (active)

Question: What about the CC50 [11] of the same molecule?
Answer: 67.4 µM (active)

Question: What about the AC50 [12] of the same molecule?
Answer: 1.31 µM (active)

Question: And the IC50 (Troponin, cardiac muscle)?
Answer: 8.6 µM (active)

Question: What about the IC50 [13] of the same molecule?
Answer: 2.48 µM (active)

Question: And the IC50 (Cysteine protease ATG4B)?
Answer: 5.61 µM (active)

Question: What about the IC50 [14] of the same molecule?
Answer: 12.7 µM (active)

Question: And the IC50 (Nonstructural protein 1)?
Answer: 6.65 µM (active)

Question: Which IC50 [15] does the source give for `NNC(=O)c1cc(-c2ccc(Cl)cc2Cl)n[nH]1` here?
Answer: > 100 µM (not active)

Question: What about the IC50 [16] of the same molecule?
Answer: 68.4 nM (active)

Question: What about the IC50 [17] of the same molecule?
Answer: > 100 µM (inactive)

Question: With `Cc1cc(-c2ccc(C)c(S(=O)(=O)N3CCN(c4ccccn4)CC3)c2)on1` as the molecule, how does the EC50 [18] read?
Answer: 4.22 µM (active)

Question: Which EC50 (Integrin alpha-4) does the source give for `c1ccc2c(-c3ccc(OCCN4CCCC4)cc3)c(-c3ccsc3)sc2c1` here?
Answer: > 49.4 µM (inactive)
